PMC8957602 (Cancer chemotherapy and pharmacology, 2022)
Several values for one entry are separate records, joined by “and”; a condition that tells them apart may be missing. Identical values can stand only once. Like-named read-outs stand apart in the source and are kept apart here.

Legend:
[1] = format: in vivo, human; settings: despite increased exposure with acid reducer co-treatment
[2] = ref [11], cited from earlier work
[3] = adults with FLT3 mutant AML, ref [26], cited from earlier work
[4] = described as weak acid drug; cited from earlier work
[5] = tested on: human cytochrome CYP3A enzyme family; settings: in vitro; ref unpublished in vitro data; cited from earlier work
[6] = ref [18], cited from earlier work
[7] = for AUC(0-t) / clearance: human, serum, oral; for AUC(0-t): 170 mg/m2, Steady state AUC0–24h, after 170 mg/m^2; for clearance: Mean clearance
[8] = tested on: CYP3A4; settings: ref [31]; cited from earlier work
[9] = before including any covariates
[10] = before inclusion of significant covariates
[11] = final model with covariates, Estimate (RSE%)
[12] = final model, standard deviation, Estimate (RSE%)
[13] = standard deviation, 500 bootstrap replicates

CC1(COc2ccc3c(c2)ncn3-c2ccc3cccc(N4CCC(N)CC4)c3n2)COC1 [crenolanib]
Tolerability of therapy [1]: well-tolerated | Terminal half-life ([2]; adults with solid tumors, 100–340 mg once daily, similar across all dose levels, [15]): 14 ± 4.2 h | Mean (CV%) steady state AUC0–72h ([2]; adults, 280 mg once daily (approx. 168 mg/m^2)): 25,928 (92%) h·nM | Tolerability ([2]; adults, 100–340 mg once daily, [15]): well tolerated | Mean clearance ([3]; similar between day 1 and day 15): ~ 60 L/h | Drug accumulation after repeated doses [3]: minimal drug accumulation | Terminal half-life [3]: 6.8 h | pKa [4]: ~ 9.8 | Metabolizing enzyme [5]: primarily metabolized by human cytochrome CYP3A enzyme family | Maximum tolerated dosage ([6]; oral once daily): 170 mg/m^2/d | Association of higher AUC with toxicities [6]: not associated with more frequent or severe toxicities | AR coefficient on V1/F βAR-V, non-parametric bootstraps mean ([7]; 500 bootstrap replicates): −0.477 | Absorption lag time Tlag, non-parametric bootstraps mean ([7]; 500 bootstrap replicates): 0.547 h | Absorption rate constant ka, non-parametric bootstraps mean ([7]; 500 bootstrap replicates): 0.192 h⁻¹ | Age coefficient on ka βAge, non-parametric bootstraps mean ([7]; 500 bootstrap replicates): −0.0403 | Central clearance CL/F, non-parametric bootstraps mean ([7]; 500 bootstrap replicates): 42.0 L/h | Central volume V1/F, non-parametric bootstraps mean ([7]; 500 bootstrap replicates): 54.0 L | Peripheral volume V2/F, non-parametric bootstraps mean ([7]; 500 bootstrap replicates): 194 L | Residual proportional error, non-parametric bootstraps mean ([7]; 500 bootstrap replicates): 0.306 | CL/F population estimate [7, 9]: 20.4 L/h | Q/F population estimate [7, 9]: 4.47 L/h | Tlag population estimate [7, 9]: 0.59 h | V1/F population estimate [7, 9]: 34.6 L | V2/F population estimate [7, 9]: 316 L | ka population estimate [7, 9]: 0.13 h⁻¹ | Inter-occasion variability of CL/F [7, 10]: 0.568 | Inter-occasion variability of V1/F [7, 10]: 0.956 | Absorption lag time Tlag, population estimate [7, 11]: 0.525 (14.4) h | Absorption rate constant ka, population estimate [7, 11]: 0.191 (10.4) /h | Peripheral volume V2/F, population estimate ([7]; final model, Estimate (RSE%)): 412 (86.7) L | Residual proportional error ([7]; final model, Estimate (RSE%)): 0.304 (4.44) | AR coefficient on V1/F βAR-V ([7]; final model, acid reducer concomitant treatment, Estimate (RSE%)): −0.516 (42.3) | Age coefficient on ka βAge ([7]; final model, exponential model, Estimate (RSE%)): −0.0404 (20.5) | Inter-occasion variability (IOV) of absorption lag time Tlag [7, 12]: 0.645 (18.3) | Inter-patient variability (IIV) of absorption lag time Tlag [7, 12]: 0.524 (27.7) | Inter-patient variability (IIV) of peripheral clearance Q/F [7, 12]: 0.536 (20.2) | Central volume V1/F, population estimate ([7]; final model, typical patient, no acid reducer, Estimate (RSE%)): 54.3 L and 54.3 (18.4) L | Lower V1/F in patients receiving concomitant acid reducers ([7]; histamine H2 antagonists or proton pump inhibitors, p=0.018): ~1.7 fold | AUC(0-t) ([7]; mean): 20.7 µM·h | AUC(0-t) ([7]; range): 9.48 to 68.5 µM·h | clearance ([7]; all patients): 642 mL/min | clearance ([7]; with acid reducers): 435 mL/min | clearance ([7]; without acid reducers): 980 mL/min | Accumulation at steady state ([7]; in vivo): minimal accumulation | IIV of absorption lag time Tlag, non-parametric bootstraps mean [7, 13]: 0.496 | IIV of absorption rate constant ka, non-parametric bootstraps mean [7, 13]: 0.091 | IIV of central volume V1/F, non-parametric bootstraps mean [7, 13]: 0.182 | IOV of absorption lag time Tlag, non-parametric bootstraps mean [7, 13]: 0.591 | IOV of central volume V1/F, non-parametric bootstraps mean [7, 13]: 0.860

COc1ccc2[nH]c([S+]([O-])Cc3ncc(C)c(OC)c3C)nc2c1 (stereo not shown) [omeprazole]
CYP3A4 inhibition [8]: weak CYP3A4 inhibitors

COc1ccnc(C[S+]([O-])c2nc3ccc(OC(F)F)cc3[nH]2)c1OC (stereo not shown) [pantoprazole]
CYP3A4 inhibition [8]: weak CYP3A4 inhibitors

CNC(=C[N+](=O)[O-])NCCSCc1ccc(CN(C)C)o1 [ranitidine]
CYP3A4 inhibition [8]: weak CYP3A4 inhibitors
